In patent US20260242391A1 (priority 2023, published 2026):

Assays:
MDS-L cells [1] = system: MDS-L cells
MDS-L cells [2] = test: cells; settings: read-out: MDS-L GlyA induction EC50
Experimental: MDS-L differentiation assay.
(§1) MDS-L were cultured in RPMI (17-105-CV, Corning) without phenol red and supplemented with 2 mM glutamine and 10% FBS. Cells first expanded in IL-3 until 70% confluence then pre-conditioned for 14 days with IL-3 (200-03, PeproTech), GCSF (300-23, PeproTech), and EPO (287-TC, R&D Systems) to promote erythroid and myeloid differentiation. A density of 10,000 cells per well were used in phenotypic assays. MDSL cells were spun and treatment media was replaced with media containing APC Anti-CD235a (GlyA) (551336, BD Biosciences) (1.25 μL per 50 L test) and incubated for 1 hour at 4° C. Cells were washed then counter stained with SYTOX-Green 1 M per 100 L prior to flow cytometry analysis. Dose response and pharmacological assays were analyzed using a ZE5 Cell Analyzer (BioRad) equipped with Everest software. Single, live, cells were analyzed for GlyA expression using FlowJo v10.7.2 software.

MDS-L cells [3] = settings: human
Experimental: MDS-L differentiation assay.
as §1

MDS-L cells [4] = test: CFU assays with MDS-L cells; assay type: cell-based
MDS-L cells [5] = test: Loss of CD71 in MDS-L cells; assay type: cell-based
MDS-L cells [6] = test: Labile heme levels of MDS-L cells; assay type: cell-based; settings: over relevant time periods (FIG. 4B)
HL-60 [7] = system: HL-60
HL-60 [8] = test: HL-60 differentiation potency; assay type: cell-based; settings: Homo sapiens

| Structure (SMILES) | Induction in apoptosis (MDS-L cells [1]) | EC50 (MDS-L cells [2]) [nM] | Maximal MDS-L GlyA fold induction (MDS-L cells [3]) [fold] | Terminal differentiation of MDS-L cells to CFU-Es while decreasing BFU-E, CFU-GM and CFU-GEMM type colonies (MDS-L cells [4]) | Loss of CD71 (MDS-L cells [5]) | Levels of labile heme in MDS-L cells (MDS-L cells [6]) | IC50 (HL-60 [7]) [nM] | EC50 (HL-60 [8]) [nM] |
| --- | --- | --- | --- | --- | --- | --- | --- | --- |
| CCO[C@H]1O[C@@H]2O[C@@]3(C)CC[C@H]4[C@H](C)CC[C@@H]([C@H]1C)[C@@]24OO3 [Arteether, arteether] | no significant induction | 580 | 3.82 | efficaciously induced terminal differentiation | efficaciously promoted the loss of CD71 | – | – | – |
| C[C@H]1[C@H](N2CCS(=O)(=O)CC2)O[C@@H]2O[C@@]3(C)CC[C@H]4[C@H](C)CC[C@@H]1[C@@]24OO3 [artemisone] | no significant induction | 150 | 6.84 | efficaciously induced terminal differentiation | efficaciously promoted the loss of CD71 | efficiently reduced | – | – |
| CC(C)[C@H](NC(=O)Cc1ccc(O[C@H]2O[C@@H]3O[C@@]4(C)CC[C@H]5[C@H](C)CC[C@@H]([C@H]2C)[C@@]35OO4)cc1)C(=O)O [Compound 302, (2-(4-(((3R,5aS,6R,8aS, 9R,10S,12R, 12aR)-3,6,9-trimethyldeca-hydro-12H-3,12-epoxy[1,2]dioxepino[4,3-i]isochromen-10-yl)oxy)phenyl)acetyl)-L-valine] | – | – | – | – | – | – | 20000 | 16.2 |
